Reference: PMC12163657 (ACS Omega, 2025)

Tests used:
ESR1 Tyr537Ser = biological target: T1, ESR1 Tyr537Ser (Homo sapiens, UniProt P03372, Y537S); experiment: AP; format: cell-based
T1 sequence (P03372 1-595 Y537S): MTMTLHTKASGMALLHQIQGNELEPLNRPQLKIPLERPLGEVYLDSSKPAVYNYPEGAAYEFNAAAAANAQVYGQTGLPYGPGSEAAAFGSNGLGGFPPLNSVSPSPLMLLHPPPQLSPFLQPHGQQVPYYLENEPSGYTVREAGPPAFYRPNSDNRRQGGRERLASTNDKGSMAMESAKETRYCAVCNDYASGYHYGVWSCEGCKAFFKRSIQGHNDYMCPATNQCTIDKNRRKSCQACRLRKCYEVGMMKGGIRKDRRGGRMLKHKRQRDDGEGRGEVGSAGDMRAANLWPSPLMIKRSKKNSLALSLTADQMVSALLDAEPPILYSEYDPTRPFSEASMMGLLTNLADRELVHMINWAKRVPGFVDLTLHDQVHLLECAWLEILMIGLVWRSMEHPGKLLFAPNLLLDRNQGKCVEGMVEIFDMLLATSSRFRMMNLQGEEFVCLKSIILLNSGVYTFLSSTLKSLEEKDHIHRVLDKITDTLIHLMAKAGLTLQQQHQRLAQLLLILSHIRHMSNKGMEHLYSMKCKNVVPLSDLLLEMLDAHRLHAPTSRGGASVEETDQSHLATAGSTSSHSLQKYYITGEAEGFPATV

[1] = test system: E2-induced uterine wet weight; experiment: Ovariectomized mouse uterine wet weight study; format: in vivo; conditions: dose giving 50% inhibition of E2-induced uterine wet weight; oral, once daily, 3 days
[2] = Single-dose pharmacokinetics, dog; format: in vivo; conditions: Beagle, serum, 10 mg/kg
[3] = Human hepatocyte stability; format: in vitro ADME; conditions: hepatocytes
BCRP = biological target: T2, BCRP (Homo sapiens, UniProt Q9UNQ0); experiment: BCRP inhibition, membrane vesicles; format: in vitro ADME
T2 sequence (Q9UNQ0 1-655): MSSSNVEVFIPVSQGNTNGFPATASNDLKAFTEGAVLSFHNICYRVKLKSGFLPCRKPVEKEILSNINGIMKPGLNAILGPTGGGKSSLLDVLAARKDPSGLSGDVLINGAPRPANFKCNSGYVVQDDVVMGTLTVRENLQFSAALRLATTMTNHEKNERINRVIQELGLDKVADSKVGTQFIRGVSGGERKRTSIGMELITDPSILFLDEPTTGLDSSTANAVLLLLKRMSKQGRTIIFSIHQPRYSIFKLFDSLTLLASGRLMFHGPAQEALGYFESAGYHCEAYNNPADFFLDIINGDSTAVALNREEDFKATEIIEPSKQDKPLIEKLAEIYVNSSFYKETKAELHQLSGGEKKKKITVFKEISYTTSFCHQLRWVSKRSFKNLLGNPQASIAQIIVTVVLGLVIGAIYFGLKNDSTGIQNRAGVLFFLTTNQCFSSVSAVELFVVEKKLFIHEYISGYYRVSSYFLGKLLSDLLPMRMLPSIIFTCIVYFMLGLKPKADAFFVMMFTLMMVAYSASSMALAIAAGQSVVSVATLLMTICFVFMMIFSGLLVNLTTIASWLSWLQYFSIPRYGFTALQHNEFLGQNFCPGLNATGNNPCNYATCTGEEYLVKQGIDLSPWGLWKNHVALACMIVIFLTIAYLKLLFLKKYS

[4] = Single-dose pharmacokinetics, mouse; format: in vivo; conditions: serum
GR = biological target: T3, GR (Homo sapiens, UniProt P04150); experiment: Reporter assay of gene transcription activity, GR; format: cell-based
T3 sequence (P04150 1-777): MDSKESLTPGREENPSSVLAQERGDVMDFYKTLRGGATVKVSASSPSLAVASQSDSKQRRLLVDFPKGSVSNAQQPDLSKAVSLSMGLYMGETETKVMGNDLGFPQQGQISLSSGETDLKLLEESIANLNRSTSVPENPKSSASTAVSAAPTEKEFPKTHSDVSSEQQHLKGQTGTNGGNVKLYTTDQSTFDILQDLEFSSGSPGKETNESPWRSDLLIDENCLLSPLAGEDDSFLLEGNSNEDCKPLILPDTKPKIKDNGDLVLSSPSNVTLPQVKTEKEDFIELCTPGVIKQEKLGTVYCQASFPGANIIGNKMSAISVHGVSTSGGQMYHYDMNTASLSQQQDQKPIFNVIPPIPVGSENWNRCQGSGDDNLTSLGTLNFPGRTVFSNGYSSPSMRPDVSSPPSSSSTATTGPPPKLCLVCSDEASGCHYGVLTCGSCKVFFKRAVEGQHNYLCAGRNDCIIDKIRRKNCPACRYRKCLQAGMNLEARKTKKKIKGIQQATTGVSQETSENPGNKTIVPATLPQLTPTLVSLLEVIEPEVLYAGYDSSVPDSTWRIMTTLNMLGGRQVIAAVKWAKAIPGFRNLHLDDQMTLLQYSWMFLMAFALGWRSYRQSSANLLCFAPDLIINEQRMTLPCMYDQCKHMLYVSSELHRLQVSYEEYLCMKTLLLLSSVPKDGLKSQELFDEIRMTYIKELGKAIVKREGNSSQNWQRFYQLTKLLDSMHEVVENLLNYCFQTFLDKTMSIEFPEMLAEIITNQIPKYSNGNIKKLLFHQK

IC50 (ESR1 Tyr537Ser): 50.1 nM
AUC ([2]; iv): 41300 ng·h/mL
Cmax ([2]; iv): 4060 ng/mL
Vd ([2]; iv): 16 L/kg
clearance ([2]; iv): 3.33 mL/min/kg
half-life ([2]; iv): 63 h
AUC ([2]; po): 33700 ng·h/mL
Cmax ([2]; po): 1760 ng/mL
Tmax ([2]; po): 1.5 h
bioavailability ([2]; po): 89%
half-life ([2]; po): 106 h
half-life [3]: 2.17 h
hepatocyte CLint [3]: 10.7 µL/min/1e6 cells
IC50 (BCRP): > 5000 nM
AUC ([4]; iv, 0.5 mg/kg): 161 ng·h/mL
Cmax ([4]; iv, 0.5 mg/kg): 29 ng/mL
Vd ([4]; iv, 0.5 mg/kg): 27 L/kg
clearance ([4]; iv, 0.5 mg/kg): 51.7 mL/min/kg
half-life ([4]; iv, 0.5 mg/kg): 7 h
AUC ([4]; po, 5 mg/kg): 1030 ng·h/mL
Cmax ([4]; po, 5 mg/kg): 91 ng/mL
Tmax ([4]; po, 5 mg/kg): 1 h
bioavailability ([4]; po, 5 mg/kg): 72%
half-life ([4]; po, 5 mg/kg): 10 h
IC50 (GR): > 3160 nM
agonist cross-reactivity on GR (GR; in words): no agonist cross-reactivity
GR pIC50, antag. mode (GR; reporter assay, antag. mode): <5.5
SMILES: CCCN1CC(Oc2ccc([C@@H]3c4[nH]c5ccccc5c4C[C@@H](C)N3CC(C)(C)F)cc2)C1 [compound 21, (1R,3R)-2-(2-Fluoro-2-methylpropyl)-3-methyl-1-(4-((1-propylazetidin-3-yl)oxy)phenyl)-2,3,4,9-tetrahydro-1H-pyrido[3,4-b]indole]
uterine wet weight ID50 [1]: <1 µg/kg
